The subject of this test is anti-PCP antibody from ATCC HB 9198. It counts as binding, rat. The conditions noted are these: for IC50: read-out: Molar IC50.

The values below come from patent publication EP0260829A2 (priority 1986, dated 1988).

As for `Oc1ccc(Cl)c(Cl)c1Cl` [2,3,4-Trichlorophenol], the “Percent Cross Reactivity With PCP” value is recorded as 0.5%.

For `Oc1c(Cl)c(Cl)cc(Cl)c1Cl` [2,3,5,6-Tetrachlorophenol], the “Percent Cross Reactivity With PCP” value is given as 42%.

Consider `Oc1cc(Cl)cc(Cl)c1Cl` [2,3,5-Trichlorophenol], for which the “Percent Cross Reactivity With PCP” value is 0.5%.

For the compound `Oc1c(Cl)ccc(Cl)c1Cl` [2,3,6-Trichlorophenol], the “Percent Cross Reactivity With PCP” value amounted to 8.8%.

Consider `Oc1cccc(Cl)c1Cl` [2,3-Dichlorophenol], for which the “Percent Cross Reactivity With PCP” value is listed as 0% and the IC50 was greater than 1000 µM.

In the case of `Oc1ccc(Cl)cc1Cl` [2,4-Dichlorophenol], the “Percent Cross Reactivity With PCP” value is on record as 0% and the IC50 is greater than 1000 µM.

As to `Oc1cc(Cl)ccc1Cl` [2,5-Dichlorophenol], the “Percent Cross Reactivity With PCP” value came out at 0% and the IC50 was greater than 1000 µM.

`Oc1c(Cl)cccc1Cl` [2,6-Dichlorophenol]: the “Percent Cross Reactivity With PCP” value is on record as 1.8%.

For the compound `Oc1ccc(Cl)c(Cl)c1` [3,4-Dichlorophenol], the “Percent Cross Reactivity With PCP” value came out at 0% and the IC50 was greater than 1000 µM.

On to `Oc1cc(Cl)cc(Cl)c1` [3,5-Dichlorophenol], for which the “Percent Cross Reactivity With PCP” value turned out to be 0% and the IC50 is greater than 1000 µM.

Regarding `Oc1ccc(Cl)cc1` [4-Chlorophenol], the “Percent Cross Reactivity With PCP” value is reported as 0% and the IC50 was greater than 1000 µM.

Consider `Clc1cc(Cl)c(Cl)c(Cl)c1Cl` [Pentachlorobenzene], for which the “Percent Cross Reactivity With PCP” value was found to be 0%, the “reaction with the antipentachlorophenol antibody” value was “fails to react” and the IC50 was greater than 1000 µM.

Consider `Oc1ccccc1` [Phenol], for which the “Percent Cross Reactivity With PCP” value was found to be 0% and the IC50 is greater than 1000 µM.

Take `Oc1c(Cl)c(Cl)c(O)c(Cl)c1Cl` [Tetrachlorohydroquinone]: the “Percent Cross Reactivity With PCP” value is 0.8%.
